Measured values: ChEMBL document CHEMBL2040820, “Synthesis and selective cytotoxic activity of novel hybrid chalcones against prostate cancer cells” (Bioorg Med Chem Lett, 2012)

Assays:
B16 [1] = test: Anticancer activity against mouse B16 cells after 48 hrs by MTT assay; format: functional, cell-based; conditions: B16, 48 h
HT-29 [2] = test: Anticancer activity against human HT-29 cells after 48 hrs by MTT assay; format: functional, cell-based; conditions: HT-29, 48 h
NCI-H460 [3] = test: Anticancer activity against human NCI-H460 cells after 48 hrs by MTT assay; format: functional, cell-based; conditions: NCI-H460, 48 h
PC-3 [4] = test: Anticancer activity against human PC3 cells after 48 hrs by MTT assay; format: functional, cell-based; conditions: PC-3, 48 h
HT-29 [5] = test: Growth inhibition of human HT-29 cells at 100 uM after 48 hrs by MTT assay; format: functional; conditions: HT-29, 48 h, read-out: GI
NCI-H460 [6] = test: Growth inhibition of human NCI-H460 cells at 100 uM after 48 hrs by MTT assay; format: functional; conditions: NCI-H460, 48 h, read-out: GI
B16 [7] = test: Growth inhibition of mouse B16 cells at 100 uM after 48 hrs by MTT assay; format: functional; conditions: B16, 48 h, read-out: GI
PC-3 [8] = test: Growth inhibition of human PC3 cells at 100 uM after 48 hrs by MTT assay; format: functional; conditions: PC-3, 48 h, read-out: GI

CC1(C)Cc2c(ccc(C(=O)/C=C/c3cn(-c4ccccc4)nc3-c3cccc([N+](=O)[O-])c3)c2OCc2ccccc2)O1
IC50 (B16 [1]): > 50 µM | IC50 (HT-29 [2]): > 100 µM | IC50 (NCI-H460 [3]): > 100 µM | IC50 (PC-3 [4]): > 100 µM

CC1(C)Cc2c(ccc(C(=O)/C=C/c3cn(-c4ccccc4)nc3-c3ccc([N+](=O)[O-])cc3)c2OCc2ccccc2)O1
inhibition of growth at 100 µM (HT-29 [5]): < 10% | inhibition of growth at 100 µM (NCI-H460 [6]): < 10% | inhibition of growth at 100 µM (B16 [7]): < 10% | IC50 (PC-3 [4]): 62.3 µM

COc1ccc(-c2nn(-c3ccccc3)cc2/C=C/C(=O)c2ccc3c(c2OCc2ccccc2)CC(C)(C)O3)cc1
inhibition of growth at 100 µM (B16 [7]): < 10% | IC50 (HT-29 [2]): > 100 µM | IC50 (NCI-H460 [3]): > 100 µM | IC50 (PC-3 [4]): 18.4 µM

CC1(C)Cc2c(ccc(C(=O)/C=C/c3ccc(Cl)cc3Cl)c2OCc2ccccc2)O1
IC50 (B16 [1]): > 100 µM | IC50 (HT-29 [2]): > 100 µM | IC50 (NCI-H460 [3]): > 100 µM | inhibition of growth at 100 µM (PC-3 [8]): < 10%

CC1(C)Cc2c(OCc3ccccc3)ccc(C(=O)/C=C/c3cn(-c4ccccc4)nc3-c3ccc([N+](=O)[O-])cc3)c2O1
IC50 (B16 [1]): > 100 µM | IC50 (HT-29 [2]): > 100 µM | IC50 (NCI-H460 [3]): > 100 µM | IC50 (PC-3 [4]): > 100 µM

COc1ccc(/C=C/C(=O)c2ccc3c(c2OCc2ccccc2)CC(C)(C)O3)cc1
inhibition of growth at 100 µM (HT-29 [5]): < 10% | IC50 (B16 [1]): > 100 µM | IC50 (NCI-H460 [3]): > 100 µM | IC50 (PC-3 [4]): 48.9 µM

COc1ccc(-c2nn(-c3ccccc3)cc2/C=C/C(=O)c2ccc(O)c3c2OC(C)(C)C3)cc1
IC50 (PC-3 [4]): 20.8 µM

CC1(C)Cc2c(ccc(C(=O)/C=C/c3cn(-c4ccccc4)nc3-c3ccccc3)c2OCc2ccccc2)O1
inhibition of growth at 100 µM (NCI-H460 [6]): < 10% | IC50 (B16 [1]): > 100 µM | IC50 (HT-29 [2]): > 100 µM | IC50 (PC-3 [4]): > 100 µM

COc1ccc(/C=C/C(=O)c2ccc(O)c3c2OC(C)(C)C3)cc1
IC50 (PC-3 [4]): 48.4 µM

Cc1ccc(-c2nn(-c3ccccc3)cc2/C=C/C(=O)c2ccc3c(c2OCc2ccccc2)CC(C)(C)O3)cc1
inhibition of growth at 100 µM (B16 [7]): < 10% | IC50 (HT-29 [2]): > 100 µM | IC50 (NCI-H460 [3]): > 100 µM | IC50 (PC-3 [4]): 24.2 µM

CC1(C)Cc2c(ccc(C(=O)/C=C/c3ccc(F)cc3)c2OCc2ccccc2)O1
IC50 (B16 [1]): > 100 µM | IC50 (HT-29 [2]): 23 µM | IC50 (NCI-H460 [3]): 75.8 µM | IC50 (PC-3 [4]): 44.2 µM

CC1(C)Cc2c(OCc3ccccc3)ccc(C(=O)/C=C/c3ccc(Cl)cc3)c2O1
inhibition of growth at 100 µM (HT-29 [5]): < 10% | inhibition of growth at 100 µM (NCI-H460 [6]): < 10% | IC50 (B16 [1]): > 100 µM | IC50 (PC-3 [4]): > 100 µM

CC1(C)Cc2c(OCc3ccccc3)ccc(C(=O)/C=C/c3ccc(Cl)cc3Cl)c2O1
inhibition of growth at 100 µM (HT-29 [5]): < 10% | inhibition of growth at 100 µM (NCI-H460 [6]): < 10% | inhibition of growth at 100 µM (B16 [7]): < 10% | IC50 (PC-3 [4]): > 100 µM

CC1(C)Cc2c(ccc(C(=O)/C=C/c3ccc(Br)cc3)c2OCc2ccccc2)O1
inhibition of growth at 100 µM (HT-29 [5]): < 10% | inhibition of growth at 100 µM (B16 [7]): < 10% | IC50 (NCI-H460 [3]): > 100 µM | IC50 (PC-3 [4]): > 50 µM

CC1(C)Cc2c(OCc3ccccc3)ccc(C(=O)/C=C/c3ccccc3)c2O1
inhibition of growth at 100 µM (HT-29 [5]): < 10% | IC50 (B16 [1]): 30.3 µM | IC50 (NCI-H460 [3]): > 100 µM | inhibition of growth at 100 µM (PC-3 [8]): < 10%

CC1(C)Cc2c(OCc3ccccc3)ccc(C(=O)/C=C/c3cn(-c4ccccc4)nc3-c3ccccc3)c2O1
inhibition of growth at 100 µM (HT-29 [5]): < 10% | inhibition of growth at 100 µM (NCI-H460 [6]): < 10% | IC50 (B16 [1]): > 100 µM | inhibition of growth at 100 µM (PC-3 [8]): < 10%

COc1ccc(/C=C/C(=O)c2ccc(OCc3ccccc3)c3c2OC(C)(C)C3)cc1
inhibition of growth at 100 µM (HT-29 [5]): < 10% | inhibition of growth at 100 µM (B16 [7]): < 10% | IC50 (NCI-H460 [3]): > 100 µM | IC50 (PC-3 [4]): 13.5 µM

CC1(C)Cc2c(ccc(C(=O)/C=C/c3ccc(Cl)cc3)c2OCc2ccccc2)O1
inhibition of growth at 100 µM (B16 [7]): < 10% | IC50 (HT-29 [2]): > 100 µM | IC50 (NCI-H460 [3]): > 100 µM | IC50 (PC-3 [4]): > 100 µM

CC1(C)Cc2c(OCc3ccccc3)ccc(C(=O)/C=C/c3ccc(F)cc3)c2O1
inhibition of growth at 100 µM (HT-29 [5]): < 10% | IC50 (B16 [1]): > 100 µM | IC50 (NCI-H460 [3]): 22.3 µM | inhibition of growth at 100 µM (PC-3 [8]): < 10%

CC1(C)Cc2c(OCc3ccccc3)ccc(C(=O)/C=C/c3cn(-c4ccccc4)nc3-c3ccc(Cl)cc3)c2O1
inhibition of growth at 100 µM (HT-29 [5]): < 10% | inhibition of growth at 100 µM (NCI-H460 [6]): < 10% | inhibition of growth at 100 µM (B16 [7]): < 10% | IC50 (PC-3 [4]): 8.4 µM

CC1(C)Cc2c(O)ccc(C(=O)/C=C/c3cn(-c4ccccc4)nc3-c3cccc([N+](=O)[O-])c3)c2O1
IC50 (PC-3 [4]): 25.6 µM

CC1(C)Cc2c(ccc(C(=O)/C=C/c3cn(-c4ccccc4)nc3-c3ccc(Cl)cc3)c2OCc2ccccc2)O1
inhibition of growth at 100 µM (B16 [7]): < 10% | IC50 (HT-29 [2]): > 100 µM | IC50 (NCI-H460 [3]): > 100 µM | IC50 (PC-3 [4]): 26 µM

COc1ccc(-c2nn(-c3ccccc3)cc2/C=C/C(=O)c2ccc(OCc3ccccc3)c3c2OC(C)(C)C3)cc1
inhibition of growth at 100 µM (NCI-H460 [6]): < 10% | inhibition of growth at 100 µM (B16 [7]): < 10% | IC50 (HT-29 [2]): > 100 µM | IC50 (PC-3 [4]): 7.9 µM

COc1cccc2c1C(=O)c1c(O)c3c(c(O)c1C2=O)C[C@@](O)(C(=O)CO)C[C@@H]3O[C@H]1C[C@H](N)[C@H](O)[C@H](C)O1 [DOXORUBICIN]
IC50 (B16 [1]): 0.03 µM | IC50 (HT-29 [2]): 19.3 µM | IC50 (NCI-H460 [3]): 5.6 µM | IC50 (PC-3 [4]): 5.9 µM

CC1(C)Cc2c(O)ccc(C(=O)/C=C/c3cn(-c4ccccc4)nc3-c3ccc(Cl)cc3)c2O1
IC50 (PC-3 [4]): 18 µM

CC1(C)Cc2c(ccc(C(=O)/C=C/c3ccccc3)c2OCc2ccccc2)O1
IC50 (B16 [1]): > 100 µM | IC50 (HT-29 [2]): > 100 µM | IC50 (NCI-H460 [3]): > 100 µM | IC50 (PC-3 [4]): > 100 µM

Cc1ccc(-c2nn(-c3ccccc3)cc2/C=C/C(=O)c2ccc(OCc3ccccc3)c3c2OC(C)(C)C3)cc1
inhibition of growth at 100 µM (HT-29 [5]): < 10% | inhibition of growth at 100 µM (NCI-H460 [6]): < 10% | IC50 (B16 [1]): > 100 µM | IC50 (PC-3 [4]): > 100 µM

CC1(C)Cc2c(OCc3ccccc3)ccc(C(=O)/C=C/c3ccc(Br)cc3)c2O1
inhibition of growth at 100 µM (B16 [7]): < 10% | IC50 (HT-29 [2]): > 100 µM | IC50 (NCI-H460 [3]): > 100 µM | IC50 (PC-3 [4]): > 100 µM

CC1(C)Cc2c(OCc3ccccc3)ccc(C(=O)/C=C/c3cn(-c4ccccc4)nc3-c3cccc([N+](=O)[O-])c3)c2O1
inhibition of growth at 100 µM (HT-29 [5]): < 10% | inhibition of growth at 100 µM (B16 [7]): < 10% | IC50 (NCI-H460 [3]): > 100 µM | IC50 (PC-3 [4]): 5.9 µM
